What was measured:
[1] = system: primary hepatocytes from WT mice; assay: De novo lipid synthesis in WT primary hepatocytes, [14C]-citric acid tracer; format: cell-based; conditions: WT mouse hepatocytes, [14C]-citric acid substrate
crab-eating monkeys = assay: High-fat, high-sugar, high-cholesterol diet-induced NASH in crab-eating monkeys; format: in vivo, crab-eating monkey; conditions: 20 mg/kg, 1 time/day, 14 weeks, liver puncture
Procedure: Dosing regimen: 18 non-alcoholic steatohepatitis-eating crab monkeys, males, were divided into 2 groups (n=8-10), one group was set up as a model control group, and one group was set up as a drug administration group. The drug (20 mg/kg) was administered at a frequency of 1 time/day for 14 weeks while feeding a high-fat, high-sugar, high-cholesterol diet for 14 weeks.
Indicator tests: The body weights and food intake of the crab-eating monkeys were closely monitored during the administration period. After 14 weeks of compound administration, liver puncture was performed for pathologic analysis of NASH indicators.

ob/ob mice = assay: NASH induced by high-fat, high-sugar, high-cholesterol diet in ob/ob mice; format: in vivo, mouse; conditions: 30 mg/kg, 1 time/day, 10 weeks
Procedure: Dosing regimen: 16 ob/ob mice, males, 7-8 weeks, were equally divided into 2 groups (n=8) and fed with high-fat, high-sugar, high-cholesterol diet (Research diet, item number D09100310) for 8 weeks for modeling, and a group of wild-type mice from the same litter was set up as a blank control group. Long-term drug administration was started after 8 weeks of modeling and the groups were model control group, compound A3 30 mg/kg group, and blank control group. The compounds in each group were prepared in saline (0.9% NaCl) and administered at a frequency of 1 time/day for 10 weeks.
Indicator test: The body weight and feeding changes of ob/ob mice and blank control mice were closely monitored during the administration period. After 10 weeks of administration, the livers of each group were taken and tested for NASH indicators (HE staining, Sirius red staining, immunohistochemistry for inflammatory signals, etc.).

[2] = system: primary mouse hepatocytes; assay: Inhibition of de novo lipid synthesis in primary hepatocytes, [1,2-14C]-sodium acetate tracer; format: cell-based; conditions: Hepatocyte, compound 12.5 μM, 4 h, [1,2-14C]-acetate, read-out: Lipid synthesis inhibition (%) (mean ± SD)
Procedure: Primary hepatic cell isolation and walling: the mouse liver was lavaged by calcium-free perfusate, then digested using collagenase and mouse primary hepatocytes were obtained by density gradient centrifugation, and were inoculated in 6-well plates at a density of 3×10^5/ml (0.2% gelatin was coated before inoculating). After inoculating, the cells were cultured and adhered for 6 h. The medium was changed to serum-free LG-DMEM (containing 2× double antibody) and starved the cells overnight.
Isotope tracing: the next day, the medium was switched to serum-free LG-DMEM containing 10 nM insulin and the corresponding concentration of compounds (1950 μL, 4 replicate wells per group); 0.1 μCi of [1,2-^14C]-acetate serum-free medium was added to each well, and the plates were then incubated for 4 h in the incubator.
Lipid saponification: Add 1.6 mL of ice PBS to each well for washing 3 times, shake the plate to dry and add 600 μL of 0.5 M KOH to each well to lysis for 1 h. Pipette 480 μL into a glass test tube with 400 μL of 20% KOH (methanol was used as solvent), shake and mix well, and then place it in a water bath at 95° C. to saponify for 3 h. The remaining lysate was used for the determination of the concentration of proteins. Add 400 μL of petroleum ether to each tube, pipette 5-6 times and centrifuge at 2500 rpm for 5 min, take 350 μL of the upper layer of the clear solution to the EP tube, and then add 400 μL of petroleum ether to repeat the extraction for 2 times (a total of 3 times). After complete transfer of the supernatant, 200 μL of water and 400 μL of 5N sulfuric acid were added to each tube for acidification, and the mixture was shaken and mixed. Add 400 μL of petroleum ether to each tube, pipette 5-6 times and centrifuge at 2500 rpm for 5 min, take 350 μL of the upper layer of the clear solution to the EP tube, then add 400 μL of petroleum ether and repeat the extraction for 2 times (a total of 3 times). Place in a fume hood and evaporate the petroleum ether overnight.
Isotope participation quantification: 1700 μL of scintillation solution was added to each tube and read.
Data processing and analysis: Firstly, the isotopic reference (R control, unit: CCPM/mg protein) of free fatty acids and cholesterol was calculated for the Control group of untreated mouse primary hepatocytes within 4 hours, which represented the basal synthesis. The percent inhibition of lipid synthesis was then calculated for each concentration group of the sample.

[3] = Oral pharmacokinetics in ICR mice; format: in vivo, mouse
Procedure: Dosing regimen: 6 normal ICR mice, male, were divided into 2 groups (n=3), one group was orally given the positive control ETC-1002, and one group was orally given the tested compound A3, both administered at a dose of 30 mg/kg; blood was taken from the eye orbits at different time points before and after the administration of the drug, and the plasma drug concentration was detected.

[4] = male, mouse, ICR mice, oral, 30 mg/kg, plasma

Question: With `CC(C)(CCCC/C=C/CCCCCC(C)(C)C(=O)O)C(=O)O` [Compound A3] as the compound, how does the “de novo synthesis of triglycerides” value ([1]; FIG. 1 A) read?
Answer: The value was “significantly inhibited”.

Question: What about the “de novo synthesis of cholesterol” value ([1]; FIG. 1 B) of the same compound?
Answer: Its value is “significantly inhibited”.

Question: What about the “accumulation of hepatic lipids” value (crab-eating monkeys) of the same compound?
Answer: Its value is “significantly reduce”.

Question: And the “activity score of non-alcoholic steatohepatopathy (NAS)” value (crab-eating monkeys)?
Answer: The value was “significantly reduced”.

Question: And the occurrence of fibrosis (crab-eating monkeys)?
Answer: Its occurrence of fibrosis is “significantly reduce”.

Question: And the occurrence of inflammation (crab-eating monkeys)?
Answer: The occurrence of inflammation was “significantly reduce”.

Question: And the “liver whitening and granulomatous sensation due to excessive lipid accumulation” value (ob/ob mice)?
Answer: The value was “significantly reversed”.

Question: What about the “degree of hepatic collagen deposition (Sirius red staining)” value (ob/ob mice; vs model control) of the same compound?
Answer: Its value is “significantly reduced”.

Question: And the “hepatic inflammatory cell infiltration (macrophage CD68 staining)” value (ob/ob mice; vs model control)?
Answer: The value was “significantly reduced”.

Question: And the “liver steatosis and ballooning (H & E staining)” value (ob/ob mice; vs model control)?
Answer: Its value is “significantly reduced”.

Question: What about the inhibition at 12.5 µM [2] of the same compound?
Answer: Its inhibition at 12.5 µM is 71.2 ± 4.3%.

Question: What about the AUC(0-inf) [3, 4] of the same compound?
Answer: Its AUC(0-inf) is 74200 ng·h/mL.

Question: And the AUC(0-t) [3, 4]?
Answer: The AUC(0-t) was 63700 ng·h/mL.

Question: What about the Cmax [3, 4] of the same compound?
Answer: The Cmax was 13400 ng/mL.

Question: And the half-life [3, 4]?
Answer: Its half-life is 339 min.

Question: And the MRT inf ([3]; male, mouse, ICR mice, oral, 30 mg/kg, plasma, read-out: MRT0-∞)?
Answer: The MRT inf was 8.01 h.

Question: And the “plasma exposure relative to Bempedoic acid” value ([3]; same oral dose)?
Answer: The value was “more than 4 times”.

Source: patent US20250144127A1, “LONG-CHAIN COMPOUND AND USE THEREOF” (Burgeon Therapeutics Co., Ltd., priority 2021, published 2025)
